In PubChem BioAssay AID179 (DTP/NCI, 2004):
Active and inactive are the calls of the source.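 The calls were made as follows: active = compounds giving half or more protection of infected cells from virus-caused growth loss, again on retest; inactive = the rest.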

System: CEM cells HIV-1 protection, formazan growth assay
Test: NCI AIDS Antiviral Assay
Details: for IC50: measured here: growth of uninfected CEM cells
Outline: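 Soluble formazan readout of cell growth; CEM cells ± HIV-1; 5 drug concs. ≥50% protection → retest; ≥50% again = moderately active; reproducible 100% = confirmed active.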

COc1ccc(C(=O)C#Cc2cnc(OC)nc2OC)cc1
EC50: > 2 µM | IC50: 0.363 µM

O=[N+]([O-])c1ccc(Sc2ccc([N+](=O)[O-])cc2)cc1
outcome: inactive

C=C(OC1C(C)=C2C(C1OC(=O)CCCCCCC)C(C)(OC(C)=O)CC(OC(=O)CCC)C1(O)C2OC(=O)C1(C)O)/C(C)=C/C (configuration not stated)
EC50: > 2 µM | IC50: 0.00282 µM

CCN(CC)CC(=O)Nc1ccccc1C
EC50: > 100 µM | IC50: > 100 µM

COc1c(C)c(C/C=C(\C)CCCC(C)CCCC(C)CCCC(C)C)c(OC)c2ccccc12 (configuration not stated)
EC50: > 200 µM | IC50: > 200 µM

CC(C)CCCC(C)[C@H]1CCC2[C@H]3C(CC[C@@]21C)[C@@]1(C)CCC=C[C@]12C[C@@H]2[C@@H]3O (some centres not stated)
outcome: inactive

COc1c(O)c2c(=O)cc(OC)c3c4c(OC)cc(=O)c5c(O)c(OC)c(C[C@H](C)O)c(c(c1CC(C)O)c23)c54 (some centres not stated)
outcome: inactive

O=CC(O)C(O)C(O)C1CNC(=S)O1 (configuration not stated)
EC50: > 200 µM | IC50: > 200 µM

O=C(O)CCNc1ccc2c(c1)B(O)OC2
EC50: > 692 µM | IC50: > 692 µM

CO[C@@H]1[C@H](O)CC[C@]2(CO2)[C@H]1[C@@]1(C)O[C@@H]1CC=C(C)C
EC50: > 200 µM | IC50: 85.1 µM

CCCC(C)SP(=S)(SC(C)CCC)SC(C)CCC (configuration not stated)
EC50: > 200 µM | IC50: > 200 µM

[N-]=[N+]=Nc1cc(=O)n(-c2ccccc2)c2ccccc12
outcome: inactive

O/N=C/c1cc2c(cc1Br)OCO2
EC50: > 155 µM | IC50: > 155 µM

N=C(N)c1ccc(OCCCCCOc2ccc(C(=N)N)cc2)cc1
EC50: > 20.4 µM | IC50: 1.29 µM

O=NNc1nc(-c2ccccn2)nc2ccccc12
EC50: > 200 µM | IC50: 7.94 µM

O=C(c1ccco1)[N+]1=Cc2[nH]c3ccccc3c2CC1
EC50: > 170 µM | IC50: 97.7 µM

O=C(O)c1ccc(CSc2ccc(Cl)cc2)cc1
EC50: > 35.5 µM | IC50: > 35.5 µM

CC(=O)NNC(=S)/N=C/C(C(=O)Nc1ccccc1)=C(/C)O
EC50: > 200 µM | IC50: > 200 µM

O=C(Nc1ccc(Cl)cc1)Nc1ccc(Cl)c(Cl)c1
EC50: > 200 µM | IC50: 2.95 µM

O=C(O)C1=C(O)C(C(=O)O)C23CCCCCCCCCCC12C(C(=O)O)C(O)=C3C(=O)O (configuration not stated)
outcome: inactive

C[C@]12CCC[C@H](Cl)C1(O)C[C@H](C(=O)O)CC2 (some centres not stated)
outcome: inactive

CC(=O)N=C1N(/C=C2\C(=O)Oc3ccccc3C2=O)C(=O)/C(=C/c2ccc(OC(C)=O)cc2)N1C
EC50: > 200 µM | IC50: 107 µM

N#Cc1c(N2CCCC2)[nH]c(=O)n(Cc2ccccc2)c1=S
EC50: > 200 µM | IC50: 115 µM

CCOC(=O)c1c(NC(=O)c2ccccc2)sc2c1CCCC2
EC50: > 151 µM | IC50: > 151 µM

CC[C@H]1CN2CCc3cc(OC)c(OC)cc3[C@@H]2C[C@@H]1C[C@H]1NCCc2cc(OC)c(OC)cc21
outcome: inactive

CN1C2CCC1CC(OC(=O)C1CCC(C(=O)OC3CC4CCC(C3)N4C)(c3ccccc3)c3ccccc31)C2 (configuration not stated)
EC50: > 200 µM | IC50: 6.46 µM

C=CCSCC1Nc2cc(Cl)c(S(N)(=O)=O)cc2S(=O)(=O)N1C (configuration not stated)
EC50: > 234 µM | IC50: 91.2 µM

CCCCCC=C(c1cc(Cl)c(O)c(C(=O)O)c1)c1cc(Cl)c(O)c(C(=O)O)c1
EC50: > 95.5 µM | IC50: > 95.5 µM

C[Si](C)(C)C(Sc1ccccc1)(Sc1ccccc1)Sc1ccccc1
outcome: inactive

CCOC(=O)c1nc2cc(N3CCOCC3)c(F)cc2[nH]c1=O
EC50: > 200 µM | IC50: 141 µM

CSc1nc(Br)nc2c1ncn2C1CC(Oc2ccc(C)cc2)C(COc2ccc(C)cc2)O1 (configuration not stated)
EC50: > 200 µM | IC50: 79.4 µM

CN(C)CCCNC(=O)c1c(O)c2ccccc2n(C)c1=O
EC50: > 200 µM | IC50: 79.4 µM

CCOC(=O)[C@H](C)OC(=O)[C@@](C)(NC(=O)c1ccccc1C(=O)OC)[C@@H]1NC=C(C(=O)OC)CS1
EC50: > 200 µM | IC50: 53.7 µM

Cc1ccc(S(=O)(=O)NNC(=O)c2cc(C(=O)NNS(=O)(=O)c3ccc(C)cc3)c(C)nc2C)cc1
EC50: > 200 µM | IC50: 162 µM

O=S(=O)(c1ccccc1)C1(CCC2OCCO2)C=CC2(CC1)OCCO2 (configuration not stated)
EC50: > 200 µM | IC50: > 200 µM

CN1C/C(=C\c2ccc(Cl)cc2)C(=O)/C(=C/c2ccc(Cl)cc2)C1
EC50: > 200 µM | IC50: 0.417 µM

N#Cc1ccc(-c2ccc(Cl)cc2)n(C2OC(CO)C(O)C(O)C2O)c1=S (configuration not stated)
EC50: > 200 µM | IC50: > 200 µM

CCN(CC)CCOC(NC(C)=O)(c1ccccc1)c1ccccc1
EC50: > 200 µM | IC50: > 200 µM

COc1ccccc1NCc1cccc2c(=O)c3ccc(Cl)cc3oc12
EC50: > 151 µM | IC50: 46.8 µM

O=c1c2c(-c3ccccc3)onc2n(-c2ccccc2)c(=O)n1-c1ccccc1
EC50: > 200 µM | IC50: 10.5 µM

CCOC(=O)C1=C(C)N(C2OC(COC(C)=O)C(OC(C)=O)C(OC(C)=O)C2OC(C)=O)C(=O)NC1c1ccccc1 (configuration not stated)
EC50: > 31.6 µM | IC50: > 31.6 µM

CC1(c2cc(Cl)c(Cl)cc2Cl)NC(=O)NC1=O (configuration not stated)
outcome: inactive

COc1cccc(C2Nc3ccccc3C(=O)N2N2CCOCC2)c1 (configuration not stated)
EC50: > 200 µM | IC50: > 200 µM
